Assay results as given in the supplement of paper PMC10307832.

How the values were obtained:
Assay in all cases: relative viability (nuclei count vs DMSO), 5 days (fraction); higher = more cells survive
TGX 221 + Luminespib = compound: CC1=CN2C(=O)C=C(N=C2C(=C1)C(C)NC3=CC=CC=C3)N4CCOCC4 [TGX 221] + CCNC(=O)c1noc(-c2cc(C(C)C)c(O)cc2O)c1-c1ccc(CN2CCOCC2)cc1 [Luminespib] (partner 0.01 µM)
Summary of the method: (§1)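 Dosing by pin tool came one day after lung cancer cell lines were seeded in 1536-well plates, using either one drug or a fixed anchor-drug dose plus five library-drug doses (not always all listed) in √10 steps. After 5 days, nuclei were counted on 4× images. Relative viability is treated-well nuclei count divided by vehicle-well nuclei count, and values are medians of duplicate plates.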

TGX 221 + Decitabine = compound: CC1=CN2C(=O)C=C(N=C2C(=C1)C(C)NC3=CC=CC=C3)N4CCOCC4 [TGX 221] + Nc1ncn([C@H]2C[C@H](O)[C@@H](CO)O2)c(=O)n1 [Decitabine] (partner 2 µM)
Summary of the method: as §1

Ricolinostat + AZD7762 = compound: O=C(CCCCCCNC(=O)c1cnc(N(c2ccccc2)c2ccccc2)nc1)NO [Ricolinostat] + NC(=O)Nc1cc(-c2cccc(F)c2)sc1C(=O)N[C@H]1CCCNC1 [AZD7762] (partner 0.2 µM)
Summary of the method: as §1

Ricolinostat + Olaparib = compound: O=C(CCCCCCNC(=O)c1cnc(N(c2ccccc2)c2ccccc2)nc1)NO [Ricolinostat] + O=C(c1cc(Cc2n[nH]c(=O)c3ccccc23)ccc1F)N1CCN(C(=O)C2CC2)CC1 [Olaparib] (partner 8 µM)
Summary of the method: as §1

Q: What does the source list for NCI-H1792?
A: relative viability (TGX 221 + Luminespib; first compound 0.08 µM): 0.52; relative viability (TGX 221 + Luminespib; first compound 0.253 µM): 0.498; relative viability (TGX 221 + Luminespib; first compound 0.8 µM): 0.418; relative viability (TGX 221 + Luminespib; first compound 2.53 µM): 0.375; relative viability (TGX 221 + Luminespib; first compound 8 µM): 0.293; relative viability (TGX 221 + Decitabine; first compound 0.08 µM): 0.522; relative viability (TGX 221 + Decitabine; first compound 0.253 µM): 0.479; relative viability (TGX 221 + Decitabine; first compound 0.8 µM): 0.549; relative viability (TGX 221 + Decitabine; first compound 2.53 µM): 0.454; relative viability (TGX 221 + Decitabine; first compound 8 µM): 0.362; relative viability (Ricolinostat + AZD7762; first compound 0.253 µM): 0.716; relative viability (Ricolinostat + AZD7762; first compound 0.8 µM): 0.581; relative viability (Ricolinostat + AZD7762; first compound 2.53 µM): 0.375; relative viability (Ricolinostat + Olaparib; first compound 0.253 µM): 0.391; relative viability (Ricolinostat + Olaparib; first compound 0.8 µM): 0.284; relative viability (Ricolinostat + Olaparib; first compound 2.53 µM): 0.041
